Data as given in paper PMC5517562, “Design and discovery of novel monastrol-1,3,5-triazines as potent anti-breast cancer agent via attenuating Epidermal Growth Factor Receptor tyrosine kinase” (Scientific Reports, 2017).

Legend:
[1] = system: HL-60 (Human promyelocytic leukemia); assay: MTT in vitro cytotoxicity assay, HL-60; format: cell-based; settings: Homo sapiens
Procedure: (§1) The synthesized compounds were evaluated for in-vitro cytotoxic activity against various cell lines such as HeLa (cervical cancer), MCF-7 (breast cancer), HL-60 (Human promyelocytic leukemia), HepG2 (Hepatocellular carcinoma) and MCF 12A (normal epithelial cell) by the MTT assay method. […] The relationship between surviving fraction and drug concentration was plotted to obtain the survival curve of all the cancer cell lines HeLa, MCF-7, HL-60 and HepG2. The response parameter calculated was the IC50 values, which responds to the concentration required for 50% inhibition of cell viability. The in-vitro cytotoxic activity of the synthesized compounds is summarized Table 3.
(§2) The target compounds were subjected to in vitro cytotoxicity bioassay. In vitro cytotoxicity was determined using a standard MTT assay with protocol appropriate for the individual test system[29]–[31]. The four human cancer cell lines HeLa, MCF-7, HL-60, HepG2 and MCF-12A were cultured in the MEM medium supplemented with 10% FBS, 1% glutamine and […] gentamicin sulfate in a CO2 incubator in a humidified atmosphere of 5% CO2 and 95% air. The test compounds were prepared prior to the experiment by dissolving in 0.1% DMSO and diluted with medium. The cells were then exposed to different concentrations of drugs ([…]) in the volume of […]. Cells in the control wells received the same volume of medium containing 0.1% DMSO. After 24 h, the medium was removed and cell cultures were incubated with […] MTT reagent (1 mg/ml) for 5 h at 37 °C. The known number of cells ([…]) was incubated in a 5% CO2 incubator at 37 °C in the presence of different concentrations of test compounds. After 48 h of drug incubation, the MTT solution was added in each well and absorbance was recorded at 540 nm by an ELISA reader. The experiment was performed in triplicate. Cell survival was calculated as the percentage of MTT inhibition as % growth inhibition = 100 − (mean OD of individual test Group/Mean OD of each Control Group) × 100.

[2] = system: HepG2 (Hepatocellular carcinoma); assay: MTT in vitro cytotoxicity assay, HepG2; format: cell-based, human; settings: Homo sapiens, NA: Not active
Procedure: as §1, §2

[3] = system: MCF 12A (normal epithelial breast cell line); assay: MTT assay on normal cells, MCF 12A; format: cell-based, human; settings: normal epithelial breast cell MCF 12A
Procedure: as §1
The presence of non-halogen substituent along with electron donating substituent seriously jeopardise the anticancer potential. […] To determine the selectivity of these molecules between normal and cancerous cells, the designed compounds were also tested against MCF 12A, a normal epithelial breast cell.
as §2

[4] = system: DMBA induced mammary tumor; assay: DMBA induced mammary tumor in female Sprague-Dawley rats; format: in vivo, rat
From the text: Encouraged by the excellent EGFR-TK inhibitory activity and anticancer effect of compound 7l against breast cancer cells which are further substantiated with docking analysis, prompted us to further analyze the effect of compound 7l in the in-vivo system. Therefore, we have utilized 7,12-Dimethylbenz(a)anthracene (DMBA), a polycyclic aromatic hydrocarbon, to induce the mammary carcinogenesis in the experimental animals to quantify the potential protective effect of compound 7l. The mechanism behind its action to induce the cancer is based on its metabolized product, i.e. the epoxide that readily forms DNA adducts which is responsible for malignant alteration. At the first instance, the effect of compound 7l was analyzed on the effect of body weight of the experimental animals.
Animal model. The female Sprague-Dawley rats (100–120 g) were obtained from the Institutional animal house after approval from the Institutional Animal Ethics Committee. The animals were kept in suitable cages with free access to food and water under a controlled temperature (24 ± 2 °C), humidity (60 ± 10%) with alternate light/dark cycle of 12 h. The entire experimental procedures involving animals were approved by the Institutional Animal Ethics Committees (IAEC) of SHUATS, in accordance and duly approved with CPCSEA (Committee for the Purpose of Control and Supervision of Experiments on Animals, Government of India. The authors confirm that all experiments were performed in accordance with relevant guidelines and regulations of SHUATS.
Initiation of breast carcinogenesis. The mammary carcinogenesis was induced in experimental rat using one-time subcutaneous administration of DMBA (25 mg) in emulsified form with the help of sunflower oil and saline to each rat.
Design of experiment. Experimental design. Total numbers of 30 animals were randomly divided into five groups and each group contains 6 animals. The various groups received different treatment as follows:
The DMBA (s.c.; 25 mg/rat) was administered to each rats near mammary gland at the end of the first week. The test drug was administered once in a day and was continued till the end of the experimental period. At the end of 16th week, the rats were fasted overnight and sacrificed by the cervical decapitation under influence of anesthesia. The blood samples were collected in and after centrifugation, the plasma was used for the further biochemical analysis. The liver and mammary tissues were excised immediately from the experimental rats and homogenized with suitable buffer, centrifuged and the resulting supernatant was used for biochemical estimations.
Biochemical Estimation. The remaining excised liver and mammary tissues were rinsed in ice-cold saline and known amount of the tissue were homogenized in 0.1 M Tris-HCl buffer (pH 7.4) at 4°C. The supernatant was collected as tissue homogenate and was used for the estimation of various biochemical parameters. The microsomal protein concentration was estimated by the method of Lowry et al.[33]; while, the concentration of plasma and mammary TBARS was estimated by the earlier reported method, [35] and the concentration of plasma and mammary tissue LOOH were estimated by the previous method. Moreover, the activity of the antioxidant enzyme system, such as SOD, CAT, GPX, GSH, CYP450, Cyt-b5, GST and GR activity in plasma and mammary tissue were determined by the earlier method given elsewhere[37]–[43].

MCF-7 (breast cancer) = assay: MTT in vitro cytotoxicity assay, MCF-7; format: cell-based, human; settings: Homo sapiens, MCF7
Procedure: as §1, §2

[5] = DMBA rats, 5, 10, 15 mg/kg once a day
[6] = liver and mammary tissues of DMBA treated animals
[7] = plasma and mammary tissues of DMBA treated animals

CCOC(=O)C1=C(C)N(c2nc(Nc3cccc(F)c3)nc(Nc3cccc(F)c3)n2)C(=S)NC1c1ccc(F)cc1 (centres unmarked) [7l, Ethyl 1-(4,6-bis((3-fluorophenyl)amino)-1,3,5-triazin-2-yl)-4-(4-fluorophenyl)-6-methyl-2-thioxo-1,2,3,4-tetrahydropyrimidine-5-carboxylate]
IC50 [1]: 23.1 ± 0.36 µM | IC50 [2]: 31.2 ± 0.82 µM | IC50 MCF 12A [3]: non-toxic | Percentage of tumour incidence [4, 5]: efficient in reducing the percentage of incidence of tumour | Tumour volume [4, 5]: significant reduction | Body weight of experimental animals ([4]; DMBA rats, 5, 10, 15 mg/kg once a day, vs DMBA group): significantly improved | Concentration of Phase I enzymes (CYP450 and Cyt-b5) [4, 6]: marked decline | Concentration of Phase II enzymes (GST and GR) [4, 6]: significant upsurge | Antioxidant status (SOD, CAT, GSH, GPx) [4, 7]: significant improvement | Level of TBARS and LOOH (lipid peroxidation) [4, 7]: significant reduction | IC50 (MCF-7 (breast cancer)): 41.5 ± 0.31 µM
